Laboratory results reported in patent US9540399B2, “Quinolone derivatives” (priority 2013, dated 2017).
In brackets after ≈: the same amount, converted by molar mass.

Legend:
Assay in all cases: Bacterial growth minimal inhibitory concentration, microdilution
Assay type in all cases: cell-based
[1] = test system: Klebsiella pneumoniae A651; conditions: multiply-resistant, quinolone-resistant strain, cation-adjusted Mueller Hinton Broth, read-out: MIC for K. pneumoniae A651
Protocol: (§1) Minimal Inhibitory Concentrations (MICs; mg/l) were determined in cation-adjusted Mueller Hinton Broth by a microdilution method following the description given in “Methods for Dilution Antimicrobial Susceptibility Tests for Bacteria that Grow Aerobically”, Approved standard, 7th ed., Clinical and Laboratory Standards Institute (CLSI) Document M7-A7, Wayne, Pa., USA, 2006.
(§2) All Example compounds were tested against several Gram positive and especially Gram negative bacteria. […] Staphylococcus aureus A798, Klebsiella pneumoniae A651 and Acinetobacter baumanii T6474 are multiply-resistant strains (in particular quinolone-resistant), while Moraxella catarrhalis A894 and E. coli ATCC 25922 are quinolone-sensitive strains.

[2] = test system: Staphylococcus aureus A798; conditions: multiply-resistant, quinolone-resistant strain, cation-adjusted Mueller Hinton Broth, read-out: MIC for S. aureus A798
Protocol: as §1, §2

[3] = test system: Acinetobacter baumanii T6474; conditions: Acinetobacter baumannii, multiply-resistant, quinolone-resistant strain, cation-adjusted Mueller Hinton Broth
Protocol: as §1, §2

[4] = test system: Moraxella catarrhalis A894; conditions: quinolone-sensitive strain, cation-adjusted Mueller Hinton Broth
Protocol: as §1, §2

E. coli ATCC 25922 = conditions: Escherichia coli, ATCC25922; quinolone-sensitive strain; cation-adjusted Mueller Hinton Broth
Protocol: as §1, §2

Compound | MIC [1] [µg/mL] | MIC [2] [µg/mL] | MIC [3] [µg/mL] | MIC [4] [µg/mL] | MIC (E. coli ATCC 25922) [µg/mL]
O=C1COc2ccc(CNC[C@H]3CC[C@H](Nc4nc5c(cc4F)c(=O)c(C(=O)O)cn5C4CC4)CC3)nc2N1 [Example 8, trans-1-Cyclopropyl-6-fluoro-4-oxo-7-(4-{[(3-oxo-3,4-dihydro-2H-pyrido[3,2-b][1,4]oxazin-6-ylmethyl)-amino]-methyl}-cyclohexylamino)-1,4-dihydro-[1,8]naphthyridine-3-carboxylic acid] | 8 (≈ 14.9 µM) | > 8 | > 8 | 0.25 (≈ 0.466 µM) | 0.5 (≈ 0.932 µM)
CCn1cc(C(=O)O)c(=O)c2cc(F)c(N[C@H]3CC[C@H](CNCc4ccc5c(n4)NC(=O)CS5)CC3)nc21 [Example 15, trans-1-Ethyl-6-fluoro-4-oxo-7-(4-{[(3-oxo-3,4-dihydro-2H-pyrido[3,2-b][1,4]thiazin-6-ylmethyl)-amino]-methyl}-cyclohexylamino)-1,4-dihydro-[1,8]naphthyridine-3-carboxylic acid] | 0.5 (≈ 0.925 µM) | 1 (≈ 1.85 µM) | 0.063 (≈ 0.117 µM) | 0.031 (≈ 0.0573 µM) | 0.125 (≈ 0.231 µM)
Cn1cc(C(=O)O)c(=O)c2cc(F)c(N3CCC(CCNCc4ccc5c(n4)NC(=O)CS5)CC3)nc21 [Example 17, 6-Fluoro-1-methyl-4-oxo-7-(4-{2-[(3-oxo-3,4-dihydro-2H-pyrido[3,2-b][1,4]thiazin-6-ylmethyl)-amino]-ethyl}-piperidin-1-yl)-1,4-dihydro-[1,8]naphthyridine-3-carboxylic acid] | 0.5 (≈ 0.949 µM) | 0.5 (≈ 0.949 µM) | 0.125 (≈ 0.237 µM) | 0.031 (≈ 0.0589 µM) | 0.125 (≈ 0.237 µM)
O=C1CSc2ccc(CNCCC3CCN(c4nc5c(cc4F)c(=O)c(C(=O)O)cn5C4CC4)CC3)nc2N1 [Example 5, 1-Cyclopropyl-6-fluoro-4-oxo-7-(4-{2-[(3-oxo-3,4-dihydro-2H-pyrido[3,2-b][1,4]thiazin-6-ylmethyl)-amino]-ethyl}-piperidin-1-yl)-1,4-dihydro-[1,8]naphthyridine-3-carboxylic acid] | 2 (≈ 3.62 µM) | 8 (≈ 14.5 µM) | 1 (≈ 1.81 µM) | 0.125 (≈ 0.226 µM) | 0.5 (≈ 0.905 µM)
Cn1cc(C(=O)O)c(=O)c2cc(F)c(N[C@H]3CC[C@H](CNCc4ccc5c(n4)NC(=O)CS5)CC3)nc21 [Example 13, trans-6-Fluoro-1-methyl-4-oxo-7-(4-{[(3-oxo-3,4-dihydro-2H-pyrido[3,2-b][1,4]thiazin-6-ylmethyl)-amino]-methyl}-cyclohexylamino)-1,4-dihydro-[1,8]naphthyridine-3-carboxylic acid] | 0.25 (≈ 0.475 µM) | 1 (≈ 1.9 µM) | 0.125 (≈ 0.237 µM) | 0.031 (≈ 0.0589 µM) | 0.063 (≈ 0.12 µM)
O=C1CSc2ccc(CNC3CCN(CCc4nc5c(cc4F)c(=O)c(C(=O)O)cn5C4CC4)CC3)nc2N1 [Example 3, 1-Cyclopropyl-6-fluoro-4-oxo-7-(2-{4-[(3-oxo-3,4-dihydro-2H-pyrido[3,2-b][1,4]thiazin-6-ylmethyl)-amino]-piperidin-1-yl}-ethyl)-1,4-dihydro-[1,8]naphthyridine-3-carboxylic acid] | 1 (≈ 1.81 µM) | 2 (≈ 3.62 µM) | 4 (≈ 7.24 µM) | 0.5 (≈ 0.905 µM) | 0.25 (≈ 0.452 µM)
O=C1CSc2ccc(CNC3CCN(c4nc5c(cc4F)c(=O)c(C(=O)O)cn5C4CC4)CC3)nc2N1 [Example 10, 1-Cyclopropyl-6-fluoro-4-oxo-7-{4-[(3-oxo-3,4-dihydro-2H-pyrido[3,2-b][1,4]thiazin-6-ylmethyl)-amino]-piperidin-1-yl}-1,4-dihydro-[1,8]naphthyridine-3-carboxylic acid] | 1 (≈ 1.91 µM) | 4 (≈ 7.63 µM) | 0.25 (≈ 0.477 µM) | 0.063 (≈ 0.12 µM) | 0.5 (≈ 0.953 µM)
O=C1CSc2ccc(CNCC3CCN(Cc4nc5c(cc4F)c(=O)c(C(=O)O)cn5C4CC4)CC3)nc2N1 [Example 9, 1-Cyclopropyl-6-fluoro-4-oxo-7-(4-{[(3-oxo-3,4-dihydro-2H-pyrido[3,2-b][1,4]thiazin-6-ylmethyl)-amino]-methyl}-piperidin-1-ylmethyl)-1,4-dihydro-[1,8]naphthyridine-3-carboxylic acid] | 2 (≈ 3.62 µM) | > 8 | 8 (≈ 14.5 µM) | 1 (≈ 1.81 µM) | 1 (≈ 1.81 µM)
O=C1CSc2ccc(CNCC3CCN(c4nc5c(cc4F)c(=O)c(C(=O)O)cn5C4CC4)CC3)nc2N1 [Example 7, 1-Cyclopropyl-6-fluoro-4-oxo-7-(4-{[(3-oxo-3,4-dihydro-2H-pyrido[3,2-b][1,4]thiazin-6-ylmethyl)-amino]-methyl}-piperidin-1-yl)-1,4-dihydro-[1,8]naphthyridine-3-carboxylic acid] | 4 (≈ 7.43 µM) | > 8 | 2 (≈ 3.71 µM) | 0.031 (≈ 0.0576 µM) | 0.5 (≈ 0.928 µM)
Cn1cc(C(=O)O)c(=O)c2cc(F)c(N[C@H]3CC[C@H](CNCc4ccc5c(n4)NC(=O)CO5)CC3)nc21 [Example 14, trans-6-Fluoro-1-methyl-4-oxo-7-(4-{[(3-oxo-3,4-dihydro-2H-pyrido[3,2-b][1,4]oxazin-6-ylmethyl)-amino]-methyl}-cyclohexylamino)-1,4-dihydro-[1,8]naphthyridine-3-carboxylic acid] | 1 (≈ 1.96 µM) | 8 (≈ 15.7 µM) | 1 (≈ 1.96 µM) | 0.063 (≈ 0.123 µM) | 0.125 (≈ 0.245 µM)
Cn1cc(C(=O)O)c(=O)c2cc(F)c(N3CCC(CCNCc4ccc5c(n4)NC(=O)CO5)CC3)nc21 [Example 16, 6-Fluoro-1-methyl-4-oxo-7-(4-{2-[(3-oxo-3,4-dihydro-2H-pyrido[3,2-b][1,4]oxazin-6-ylmethyl)-amino]-ethyl}-piperidin-1-yl)-1,4-dihydro-[1,8]naphthyridine-3-carboxylic acid] | 1 (≈ 1.96 µM) | 2 (≈ 3.92 µM) | 0.5 (≈ 0.979 µM) | 0.125 (≈ 0.245 µM) | 0.25 (≈ 0.49 µM)
O=C1CSc2ccc(CN3CCC(CCNc4nc5c(cc4F)c(=O)c(C(=O)O)cn5C4CC4)CC3)nc2N1 [Example 6, 1-Cyclopropyl-6-fluoro-4-oxo-7-{2-[1-(3-oxo-3,4-dihydro-2H-pyrido[3,2-b][1,4]thiazin-6-ylmethyl)-piperidin-4-yl]-ethylamino}-1,4-dihydro-[1,8]naphthyridine-3-carboxylic acid] | 2 (≈ 3.62 µM) | > 8 | 0.5 (≈ 0.905 µM) | 0.5 (≈ 0.905 µM) | 2 (≈ 3.62 µM)
O=C1COc2ccc(CNCCN3CCN(c4nc5c(cc4F)c(=O)c(C(=O)O)cn5C4CC4)CC3)nc2N1 [Example 12, 1-Cyclopropyl-6-fluoro-4-oxo-7-(4-{2-[(3-oxo-3,4-dihydro-2H-pyrido[3,2-b][1,4]oxazin-6-ylmethyl)-amino]-ethyl}-piperazin-1-yl)-1,4-dihydro-[1,8]naphthyridine-3-carboxylic acid] | 8 (≈ 14.9 µM) | > 8 | 8 (≈ 14.9 µM) | 1 (≈ 1.86 µM) | 2 (≈ 3.72 µM)
O=C1CSc2ccc(CNCCN3CCN(c4cc5c(cc4F)c(=O)c(C(=O)O)cn5C4CC4)CC3)nc2N1 [Example 11, 1-Cyclopropyl-6-fluoro-4-oxo-7-(4-{2-[(3-oxo-3,4-dihydro-2H-pyrido[3,2-b][1,4]thiazin-6-ylmethyl)-amino]-ethyl}-piperazin-1-yl)-1,4-dihydro-quinoline-3-carboxylic acid] | 8 (≈ 14.5 µM) | 8 (≈ 14.5 µM) | > 8 | 1 (≈ 1.81 µM) | 2 (≈ 3.62 µM)
O=C1CSc2ccc(CNCCN3CCN(c4nc5c(cc4F)c(=O)c(C(=O)O)cn5C4CC4)CC3)nc2N1 [Example 4, 1-Cyclopropyl-6-fluoro-4-oxo-7-(4-{2-[(3-oxo-3,4-dihydro-2H-pyrido[3,2-b][1,4]thiazin-6-ylmethyl)-amino]-ethyl}-piperazin-1-yl)-1,4-dihydro-[1,8]naphthyridine-3-carboxylic acid] | 2 (≈ 3.61 µM) | > 8 | 2 (≈ 3.61 µM) | 0.25 (≈ 0.452 µM) | 1 (≈ 1.81 µM)
O=C1CSc2ccc(CN[C@H]3CC[C@H](Nc4nc5c(cc4F)c(=O)c(C(=O)O)cn5C4CC4)CC3)nc2N1 [Example 2, trans-1-Cyclopropyl-6-fluoro-4-oxo-7-{4-[(3-oxo-3,4-dihydro-2H-pyrido[3,2-b][1,4]thiazin-6-ylmethyl)-amino]-cyclohexylamino}-1,4-dihydro-[1,8]naphthyridine-3-carboxylic acid] | 1 (≈ 1.86 µM) | 4 (≈ 7.43 µM) | 0.5 (≈ 0.928 µM) | 0.25 (≈ 0.464 µM) | 0.5 (≈ 0.928 µM)
O=C1CSc2ccc(CNC[C@H]3CC[C@H](Nc4nc5c(cc4F)c(=O)c(C(=O)O)cn5C4CC4)CC3)nc2N1 [Example 1, trans-1-Cyclopropyl-6-fluoro-4-oxo-7-(4-{[(3-oxo-3,4-dihydro-2H-pyrido[3,2-b][1,4]thiazin-6-ylmethyl)-amino]-methyl}-cyclohexylamino)-1,4-dihydro-[1,8]naphthyridine-3-carboxylic acid] | 0.5 (≈ 0.905 µM) | 1 (≈ 1.81 µM) | 0.125 (≈ 0.226 µM) | 0.125 (≈ 0.226 µM) | 0.25 (≈ 0.452 µM)
